Molecules are shown by their SMILES.

The target of this assay is T1, Human HPK1, catalytic domain (Homo sapiens, UniProt Q92918).
T1 construct: purchased Carna
T1 sequence (Q92918 1-346): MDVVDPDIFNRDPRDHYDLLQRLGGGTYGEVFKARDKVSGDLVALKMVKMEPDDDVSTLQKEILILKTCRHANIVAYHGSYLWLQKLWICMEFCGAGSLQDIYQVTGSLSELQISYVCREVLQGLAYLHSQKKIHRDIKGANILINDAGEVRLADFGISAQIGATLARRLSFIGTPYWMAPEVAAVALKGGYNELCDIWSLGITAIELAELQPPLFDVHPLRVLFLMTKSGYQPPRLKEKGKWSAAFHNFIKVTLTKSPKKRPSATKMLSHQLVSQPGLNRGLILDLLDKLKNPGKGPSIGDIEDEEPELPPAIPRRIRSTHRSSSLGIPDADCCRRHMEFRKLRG
In words: HPK1-SLP76 TR-FRET assay. The format is biochemical. As to conditions: 75 pM HPK1, 10 uM ATP, 10 nM SLP76, 30 min compound pre-incubation. For orientation: In TR-FRET formats the signal depends on donor and acceptor labels being close together.

With `COc1cc2c(cc1Nc1ncc(C(N)=O)c(Nc3c(F)cccc3Br)n1)CN(C)CC2` [Example 4-4, 4-[(2-bromo-6-fluorophenyl)amino]-2-[(6-methoxy-2-methyl-1,2,3,4-tetrahydroisoquinolin-7-yl)amino]pyrimidine-5-carboxamide], the IC50 – broadly, the concentration needed to halve the response being measured – stood at 0.12 nM.

In turn, `NC(=O)c1cnc(Nc2cccc(OC(F)F)c2)nc1Nc1cccc2c1CCNC2=O` [Example 25-16, 2-{[3-(difluoromethoxy)phenyl]amino}-4-[(1-oxo-1,2,3,4-tetrahydroisoquinolin-5-yl)amino]pyrimidine-5-carboxamide] came in with an IC50 of 14.5 nM.

Molecule `CCc1ccc(Nc2ncc(C(N)=O)c(Nc3cccc4c3CCNC4=O)n2)cc1` [Example 25-9, 2-[(4-ethylphenyl)amino]-4-[(1-oxo-1,2,3,4-tetrahydroisoquinolin-5-yl)amino]pyrimidine-5-carboxamide] returned an IC50 of 12.1 nM.

As to `CC(C)c1cccc(Nc2ncc(C(N)=O)c(Nc3cccc4c3CCNC4=O)n2)c1` [Example 25-28, 4-[(1-oxo-1,2,3,4-tetrahydroisoquinolin-5-yl)amino]-2-{[3-(propan-2-yl)phenyl]amino}pyrimidine-5-carboxamide], the half-maximal inhibitory concentration (IC50) is 3.72 nM.

For the molecule `COCCN1CCc2cc(OC)c(Nc3ncc(C(N)=O)c(Nc4ccccc4Br)n3)cc2C1` [Example 10-1, 4-[(2-bromophenyl)amino]-2-{[6-methoxy-2-(2-methoxyethyl)-1,2,3,4-tetrahydroisoquinolin-7-yl]amino}pyrimidine-5-carboxamide], the half-maximal inhibitory concentration (IC50) amounted to 0.44 nM.

With `COc1cc2c(cc1Nc1ncc(C(N)=O)c(Nc3cccc(C#N)c3F)n1)CN(C)CC2` [Example 7-30, 4-[(3-cyano-2-fluorophenyl)amino]-2-[(6-methoxy-2-methyl-1,2,3,4-tetrahydroisoquinolin-7-yl)amino]pyrimidine-5-carboxamide], the IC50 is 2.38 nM.

Regarding `COc1cc2c(cc1Nc1ncc(C(N)=O)c(Nc3ccc(F)c(C#N)c3)n1)CN(C)CC2` [Example 7-26, 4-[(3-cyano-4-fluorophenyl)amino]-2-[(6-methoxy-2-methyl-1,2,3,4-tetrahydroisoquinolin-7-yl)amino]pyrimidine-5-carboxamide], the IC50 came to 15 nM.

The molecule `COCCOCCOCCCN1CCc2cc(OC)c(Nc3ncc(C(N)=O)c(Nc4ccccc4Br)n3)cc2C1` [Example 9-5, 4-((2-bromophenyl)amino)-2-((6-methoxy-2-(3-(2-(2-methoxyethoxy)ethoxy)propyl)-1,2,3,4-tetrahydroisoquinolin-7-yl)amino)pyrimidine-5-carboxamide] registered an IC50 of 0.71 nM.

Take `CCn1ncc(C)c1Nc1nc(Nc2cc3c(cc2OC)CCN(C)C3)ncc1C(N)=O` [Example 7-93, 4-((1-ethyl-4-methyl-1H-pyrazol-5-yl)amino)-2-((6-methoxy-2-methyl-1,2,3,4-tetrahydroisoquinolin-7-yl)amino)pyrimidine-5-carboxamide]: the IC50 was found to be 18.5 nM.

The molecule `COc1cc2c(cc1Nc1ncc(C(N)=O)c(Nc3cccc4c3CCN(CC(C)(C)O)C4)n1)CN(C)CC2` [Example 7-28, 4-{[2-(2-hydroxy-2-methylpropyl)-1,2,3,4-tetrahydroisoquinolin-5-yl]amino}-2-[(6-methoxy-2-methyl-1,2,3,4-tetrahydroisoquinolin-7-yl)amino]pyrimidine-5-carboxamide] displayed an IC50 of 0.51 nM.

As for `COc1cc2c(cc1Nc1ncc(C(N)=O)c(Nc3cccc(C(C)N)c3)n1)CN(C)CC2` (stereo not shown) [Example 2-5, 4-{[3-(1-aminoethyl)phenyl]-amino}-2-[(6-methoxy-2-methyl-1,2,3,4-tetrahydroisoquinolin-7-yl)amino]pyrimidine-5-carboxamide], the IC50 worked out at 0.25 nM.

Molecule `Cc1cccc(F)c1Nc1nc(Nc2cnn(CC(F)(F)F)c2)ncc1C(N)=O` [Example 4-24, 4-[(2-fluoro-6-methylphenyl)amino]-2-{[1-(2,2,2-trifluoroethyl)-1H-pyrazol-4-yl]amino}pyrimidine-5-carboxamide] gave an IC50 of 594 nM.

For the molecule `COc1cc2c(cc1Nc1ncc(C(N)=O)c(NC3CCc4ccc(C)cc43)n1)CN(C)CC2` (stereo not shown) [Example 26-71, 2-[(6-methoxy-2-methyl-1,2,3,4-tetrahydroisoquinolin-7-yl)amino]-4-[(6-methyl-2,3-dihydro-1H-inden-1-yl)amino]pyrimidine-5-carboxamide], the IC50 turned out to be 32.8 nM.

With `COc1cc2c(cc1Nc1ncc(C(N)=O)c(Nc3cccc(CNC(=O)OC(C)(C)C)c3)n1)CN(C)CC2` [Example 2-1, tert-butyl {[3-({5-carbamoyl-2-[(6-methoxy-2-methyl-1,2,3,4-tetrahydroisoquinolin-7-yl)amino]pyrimidin-4-yl}amino)phenylmethyl} carbamate], the IC50 stood at 1.59 nM.

Molecule `COc1cc2c(cc1Nc1ncc(C(N)=O)c(Nc3cccc4c3OCC4)n1)CN(C)CC2` [Example 7-7, 4-[(2,3-dihydro-1-benzofuran-7-yl)amino]-2-[(6-methoxy-2-methyl-1,2,3,4-tetrahydroisoquinolin-7-yl)amino]pyrimidine-5-carboxamide] displayed an IC50 of 0.03 nM.

Consider `COc1cc2c(cc1Nc1ncc(C(N)=O)c(N[C@H]3C[C@H]4CC[C@@H](C3)N4C)n1)CN(C)CC2` [Example 26-26, 2-[(6-methoxy-2-methyl-1,2,3,4-tetrahydroisoquinolin-7-yl)amino]-4-{[(1R,3r,5S)-8-methyl-8-azabicyclo[3.2.1]octan-3-yl]amino}pyrimidine-5-carboxamide], for which the IC50 was found to be 3.31 nM.

The molecule `COc1cc2c(cc1Nc1ncc(C(N)=O)c(Nc3cccc4c3CCNC4=O)n1)CN(C)CC2` [Example 7-27, 2-[(6-methoxy-2-methyl-1,2,3,4-tetrahydroisoquinolin-7-yl)amino]-4-[(1-oxo-1,2,3,4-tetrahydroisoquinolin-5-yl)amino]pyrimidine-5-carboxamide] registered a concentration for half-maximal inhibition (IC50) of 0.13 nM.

The molecule `COc1cc2c(cc1Nc1ncc(C(N)=O)c(Nc3ccc(F)c(F)c3F)n1)CN(C)CC2` [Example 4-13, 2-[(6-methoxy-2-methyl-1,2,3,4-tetrahydroisoquinolin-7-yl)amino]-4-[(2,3,4-trifluorophenyl)amino] pyrimidine-5-carboxamide] gave an IC50 of 2.4 nM.

`CN1CCc2cc(F)c(Nc3ncc(C(N)=O)c(Nc4c(F)cccc4C(F)(F)F)n3)cc2C1` [Example 4-29, 2-[(6-fluoro-2-methyl-1,2,3,4-tetrahydroisoquinolin-7-yl)amino]-4-{[2-fluoro-6-(trifluoromethyl)phenyl]amino} pyrimidine-5-carboxamide] yielded an IC50 of 0.2 nM.

Consider `C#CC[C@H]1CCC[C@H]1Nc1nc(Nc2cc3c(cc2OC)CCN(C)C3)ncc1C(N)=O` [Example 26-40, 2-[(6-methoxy-2-methyl-1,2,3,4-tetrahydroisoquinolin-7-yl)amino]-4-{[(1R,2R)-2-(prop-2-yn-1-yl)cyclopentyl]amino}pyrimidine-5-carboxamide], for which 2.08 nM corresponded to half-maximal inhibition (IC50).

With `COc1cc2c(cc1Nc1ncc(C(N)=O)c(NC3CCCCCC3)n1)CN(C)CC2` [Example 26-1, 4-(cycloheptylamino)-2-[(6-methoxy-2-methyl-1,2,3,4-tetrahydroisoquinolin-7-yl)amino]pyrimidine-5-carboxamide], the IC50 came to 0.26 nM.

In turn, `COc1cc2c(cc1Nc1ncc(C(N)=O)c(Nc3cccc(F)c3)n1)CN(C)CC2` [Example 7-18, 4-[(3-fluorophenyl)amino]-2-[(6-methoxy-2-methyl-1,2,3,4-tetrahydroisoquinolin-7-yl)amino]pyrimidine-5-carboxamide] came in with an IC50 of 0.29 nM.

As to `C#Cc1ccccc1Nc1nc(Nc2cc3c(cc2OC)CCN(C)C3)ncc1C(N)=O` [Example 7-102, 4-[(2-ethynylphenyl)amino]-2-[(6-methoxy-2-methyl-1,2,3,4-tetrahydroisoquinolin-7-yl)amino]pyrimidine-5-carboxamide], the IC50 came out at 0.61 nM.

`CC[C@H](C)Cc1ccccc1Nc1nc(Nc2cc3c(cc2OC)CCN(C)C3)ncc1C(N)=O` [Example 13-6, 2-[(6-methoxy-2-methyl-1,2,3,4-tetrahydroisoquinolin-7-yl)amino]-4-({2-[(2S)-2-methylbutyl]phenyl}amino)pyrimidine-5-carboxamide] yielded an IC50 of 597 nM.

`COc1cc(C(=O)N2CCC(N(C)C)C2)ccc1Nc1ncc(C(N)=O)c(Nc2ccccc2C(F)(F)F)n1` (stereo not shown) [Example 11-2, 2-((4-(3-(dimethylamino)pyrrolidine-1-carbonyl)-2-methoxyphenyl)amino)-4-((2-(trifluoromethyl)phenyl)amino)pyrimidine-5-carboxamide] had an IC50 of 199 nM.

Turning to `COc1cc(C(=O)N2CCN(C)CC2)ccc1Nc1ncc(C(N)=O)c(Nc2ccccc2C(F)(F)F)n1` [Example 11-1, 2-((2-methoxy-4-(4-methylpiperazine-1-carbonyl)phenyl)amino)-4-((2-(trifluoromethyl)phenyl)amino)pyrimidine-5-carboxamide], the midpoint of inhibition, the IC50, lay at 869 nM.

As to `COc1cc(F)ccc1Nc1ncc(C(N)=O)c(Nc2cccc3c2CCNC3=O)n1` [Example 25-41, 2-[(4-fluoro-2-methoxyphenyl)amino]-4-[(1-oxo-1,2,3,4-tetrahydroisoquinolin-5-yl)amino]pyrimidine-5-carboxamide], half-maximal inhibition (IC50) was put at 733 nM.

`COc1cc2c(cc1Nc1ncc(C(N)=O)c(Nc3cn(C)nc3C(F)(F)F)n1)CN(C)CC2` [Example 7-86, 2-((6-methoxy-2-methyl-1,2,3,4-tetrahydroisoquinolin-7-yl)amino)-4-((1-methyl-3-(trifluoromethyl)-1H-pyrazol-4-yl)amino)pyrimidine-5-carboxamide] came in with a 50% inhibitory concentration (IC50) of 11.8 nM.

(Values after patent US20230416225A1, “DIAMINOPYRIMIDINE CARBOXAMIDE INHIBITORS OF HPK1” (MERCK SHARP & DOHME LLC, priority 2020, published 2023).)
